For data set [1], the system named is Plasmodium falciparum. In words: Antimalarial activity against Plasmodium falciparum. The format is functional. The conditions noted are these: read-out: ID50 (the source's name).
In data set [2] the target is T1, Hypoxanthine-guanine phosphoribosyltransferase (Homo sapiens, UniProt P00492).
T1 sequence (P00492 whole entry): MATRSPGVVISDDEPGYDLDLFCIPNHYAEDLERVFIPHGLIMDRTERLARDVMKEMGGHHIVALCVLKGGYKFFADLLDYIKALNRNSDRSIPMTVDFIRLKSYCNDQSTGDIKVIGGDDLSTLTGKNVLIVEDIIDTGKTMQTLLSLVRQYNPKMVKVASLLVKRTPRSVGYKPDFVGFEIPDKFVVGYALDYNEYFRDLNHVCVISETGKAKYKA

A short description of data set [3]: Inhibition of Plasmodium vivax HGPRT using Prib-PP as substrate by Hanes-plot based method.
Data set [4] is described as follows: Inhibition of Plasmodium falciparum HGXPRT using Prib-PP as substrate by Hanes-plot based method.
Data set [5] relates to Plasmodium falciparum. Nature of the data set: Antimalarial activity against Plasmodium falciparum FCQ-27 isolate infected in erythrocytes assessed as reduction in [G-3H]Hypoxanthine incorporation incubated for 24 hrs followed by addition of [G-3H]Hypoxanthine and measured after 18 to 20 hrs by scintillation counting method. In kind it is functional.
For data set [6], the system named is Plasmodium falciparum. Nature of the data set: Antimalarial activity against synchronized Plasmodium falciparum K1 ring form infected in human erythrocytes assessed as reduction in parasite growth after 72 hrs by Hoechst 33258 staining based fluorescence assay. To be noted: K1, 72 h. The format is functional, organism-based.
The target of data set [7] is T2, Purine nucleoside phosphorylase (Plasmodium falciparum, UniProt Q8T9Z7).
T2 sequence (Q8T9Z7 whole entry): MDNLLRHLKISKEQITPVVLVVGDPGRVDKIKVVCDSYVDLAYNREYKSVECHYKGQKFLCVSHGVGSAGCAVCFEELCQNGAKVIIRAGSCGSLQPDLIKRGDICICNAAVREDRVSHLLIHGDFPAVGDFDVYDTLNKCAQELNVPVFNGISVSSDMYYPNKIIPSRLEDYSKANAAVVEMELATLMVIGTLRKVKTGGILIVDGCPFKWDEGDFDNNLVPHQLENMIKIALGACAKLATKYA

Data set [8] concerns the target T3, Purine nucleoside phosphorylase (Homo sapiens, UniProt P00491).
T3 sequence (P00491 whole entry): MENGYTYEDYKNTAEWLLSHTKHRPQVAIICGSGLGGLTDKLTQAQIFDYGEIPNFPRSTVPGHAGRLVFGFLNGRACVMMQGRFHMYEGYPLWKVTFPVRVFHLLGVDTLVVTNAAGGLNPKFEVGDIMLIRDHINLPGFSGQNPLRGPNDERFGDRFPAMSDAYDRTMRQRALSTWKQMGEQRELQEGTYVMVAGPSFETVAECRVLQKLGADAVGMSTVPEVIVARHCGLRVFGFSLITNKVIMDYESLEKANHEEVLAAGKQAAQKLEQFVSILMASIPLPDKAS

Data set [9] concerns Plasmodium falciparum. Nature of the data set: microbe, parasite or virus in culture. The conditions noted are these: 3D7.
Data set [10] relates to Plasmodium falciparum. In words: Antimalarial activity against Plasmodium falciparum D6 assessed as reduction in parasite growth preincubated for 48 hrs followed by addition of [3H]Hypoxanthine and measured after 48 hrs by [3H]Hypoxanthine incorporation assay. The format is functional, organism-based.
Data set [11] concerns Plasmodium falciparum. Nature of the data set: Antimalarial activity against chloroquine/ pyrimethamine-resitant Plasmodium falciparum W2 assessed as reduction in parasite growth preincubated for 48 hrs followed by addition of [3H]Hypoxanthine and measured after 48 hrs by [3H]Hypoxanthine incorporation assay. The format is functional, organism-based.
Data set [12] can be described thus: Inhibition of Plasmodium falciparum HGXPRT expressed in Escherichia coli BL21 (DE3) assessed as inhibitor constant for enzyme-inhibitor-substrate complex formation using [5'-14C]IMP as substrate by scintillation counting method.
Data set [13] is described as follows: Inhibition of Plasmodium falciparum N-terminal His6-tagged HGXPRT using Prib-PP as substrate by Hanes-plot based method.
Data set [14] deals with T1, Hypoxanthine-guanine phosphoribosyltransferase. In words: Inhibition of human N-terminal His6-tagged HGPRT using Prib-PP as substrate by Hanes-plot based method.
Data set [15] deals with T4, Adenosine deaminase (Plasmodium falciparum, UniProt Q86GS5).
T4 sequence (Q86GS5 whole entry): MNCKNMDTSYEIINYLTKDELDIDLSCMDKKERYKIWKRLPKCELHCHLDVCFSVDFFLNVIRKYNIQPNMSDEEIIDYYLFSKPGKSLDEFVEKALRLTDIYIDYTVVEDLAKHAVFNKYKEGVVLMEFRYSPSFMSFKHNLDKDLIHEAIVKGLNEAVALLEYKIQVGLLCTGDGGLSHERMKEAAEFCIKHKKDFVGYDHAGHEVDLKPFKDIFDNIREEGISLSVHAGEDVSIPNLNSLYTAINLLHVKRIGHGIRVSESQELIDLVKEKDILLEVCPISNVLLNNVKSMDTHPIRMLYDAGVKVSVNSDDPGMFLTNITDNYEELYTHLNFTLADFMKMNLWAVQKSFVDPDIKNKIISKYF
Nature of the data set: Inhibition of Plasmodium falciparum ADA assessed as reduction in formation of ammonia using adenosine as substrate incubated for 15 mins by spectrophotometric analysis.

Data set [16] deals with Plasmodium falciparum. Nature of the data set: Antimalarial activity against multi drug-resistant Plasmodium falciparum K1 assessed as reduction in parasite growth [3H]Hypoxanthine incorporation assay. The conditions noted are these: read-out: ID50 (the source's name). In kind it is functional.
Data set [17] concerns the target T4, Adenosine deaminase. In words: Inhibition of Plasmodium falciparum N-terminal thrombin cleavable His6-tagged ADA expressed in Escherichia coli BL21 assessed as reduction in formation of inosine using adenosine as substrate.
The target in data set [18] is T4, Adenosine deaminase. In words: Inhibition of Plasmodium falciparum N-terminal thrombin cleavable His6-tagged ADA expressed in Escherichia coli BL21 assessed as equilibrium dissociation constant by measuring reduction in formation of inosine using adenosine as substrate.
Substrate in data set [19]: O=c1[nH]cnc2c1ncn2[C@@H]1O[C@H](CO)[C@@H](O)[C@H]1O
Nature of the data set: Binding affinity to human PNP assessed as catalytic rate by measuring uric acid formation.

Substrate in data set [20]: O=c1[nH]cnc2c1ncn2[C@@H]1O[C@H](CO)[C@@H](O)[C@H]1O
Nature of the data set: Binding affinity to Plasmodium falciparum His-tagged PNP assessed as catalytic rate by measuring uric acid formation.

The term Ki denotes the equilibrium dissociation constant of an inhibitor or competing ligand from its target. For orientation: kcat means the maximal rate divided by the concentration of active sites.

Bounds are passed on as bounds.

For the molecule `Nc1ncnc2c1ncn2[C@@H]1C[C@@H](OP(=O)(O)OC[C@H]2O[C@@H](n3cc(F)c(=O)[nH]c3=O)C[C@@H]2O)[C@H](CO)O1`, the IC50 in data set [1] turned out to be 5 µM.
As to `Nc1nc2c(ncn2C[C@H](CO)n2cc(P(=O)(O)O)nn2)c(=O)[nH]1`, the Ki in data set [2] is 0.1 µM; in data set [3], 1 to 6 µM; in data set [4] it was 1000 to 6000 nM.
`CNc1ncnc2c1ncn2[C@H]1C[C@H](O)[C@@H](CO)O1`: in data set [5], the IC37 came out at 10 µM.
Turning to `Nc1ncnc2c1ncn2C[C@H](CO)OCP(=O)(O)O`, the IC50 in data set [6] was found to be 6 µM.
Regarding `O=c1[nH]cnc2c1ncn2C[C@H](CO)n1cc(P(=O)(O)O)nn1`, the values for the inhibition constant Ki in data set [2], in data set [3] and in [4] were 8 µM, over 100 µM and 3000 nM, respectively.
For the molecule `Nc1nc2c(ncn2[C@@H]2CN(C(=O)CCP(=O)(O)O)C[C@H]2OC[C@@H](O)P(=O)(O)O)c(=O)[nH]1`, the Ki in data set [3] amounted to 0.008 µM; in data set [4] it was 7 nM.
In the case of `Nc1nc2c([C@@H]3N[C@H](CO)[C@@H](O)[C@H]3O)c[nH]c2c(=O)[nH]1`, the Ki in data set [7] is 0.9 nM; in [8], 29 nM.
`O=c1[nH]cnc2c([C@@H]3N[C@H](CO)[C@@H](O)[C@H]3O)c[nH]c12` [FORODESINE]: the IC50 in [9] came out at 63 nM.
As to `CCOC(=O)[C@H](Cc1ccccc1)NP(N)(=O)CCO[C@H](CO)Cn1cnc2c(=O)[nH]cnc21` (stereo partly specified), the IC50 in data set [10] and in [11] was over 250 µM each time.
In the case of `O=c1[nH]cnc2c([C@@H]3N[C@H](COP(=O)(O)O)[C@@H](O)[C@H]3O)c[nH]c12`, in data set [12], the Ki was found to be 1 nM.
In the case of `COC(=O)[C@H](Cn1cnc2c(=O)[nH]cnc21)OCCP(=O)(O)O`, the inhibitory constant (Ki) in data set [13] worked out at 1000 nM; in data set [14], 6 µM.
For the molecule `Nc1nccc2c1ncn2C[C@@H](CO)OCP(=O)(O)O`, the IC50 in data set [6] is 0.29 µM.
Regarding `OC[C@H]1O[C@@H](n2cnc3c2NC=NC[C@@H]3O)[C@H](O)[C@@H]1O`, the Ki in [15] stood at 0.007 nM.
Consider `CCOC(=O)[C@H](Cc1ccccc1)NP(N)(=O)CCO[C@H](CO)Cn1cnc2c(=O)[nH]c(N)nc21` (stereo partly specified), for which the IC50 in data set [10] and in [11] was over 250 µM throughout.
As for `CCOC(=O)[C@H](Cc1ccccc1)NP(=O)(CCO[C@H](CO)Cn1cnc2c(=O)[nH]c(N)nc21)N[C@@H](Cc1ccccc1)C(=O)OCC`, the IC50 in data set [10] and in [11] was 22 to 70 µM in each case.
Regarding `Nc1ncnc2c1ncn2[C@H]1O[C@@H](CO)[C@H](OP(=O)(O)OC[C@H]2O[C@@H](n3cc(F)c(=O)[nH]c3=O)C[C@@H]2O)[C@@H]1O`, the IC50 in data set [1] stood at 4 µM.
Take `Nc1ncnc2c1ccn2[C@@H]1O[C@H](CO)[C@@H](O)[C@H]1O` [TUBERCIDIN]: in data set [5], the IC37 is 0.7 µM.
As to `Nc1nc2c(ncn2[C@H]2CCN(C(=O)CP(=O)(O)O)C2)c(=O)[nH]1`, the Ki in data set [2] came to 73000 µM; in data set [3], 2600 µM; in [4], 400000 nM.
As to `NC(=O)c1cn([C@@H]2O[C@H](CO)[C@@H](O)[C@H]2O)c2ncnc(N)c12` [SANGIVAMYCIN], the IC50 in data set [1] stood at 25 µM. In addition, the IC37 in data set [5] was determined as 0.3 µM.
Consider `Nc1nccc2c1ncn2C[C@H](CO)OCP(=O)(O)O`, for which, in data set [6], the IC50 worked out at 100 µM.
Regarding `Nc1nc2c(ncn2C[C@@H](CO)n2cc(P(=O)(O)O)nn2)c(=O)[nH]1`, the Ki in data set [2] is 0.4 µM; in data set [3], 2 µM; in data set [4] it was 2000 nM.
Consider `Nc1nc(N)c2ncn(C[C@@H](CO)OCP(=O)(O)O)c2n1`, for which the IC50 in data set [6] was found to be 2.1 µM.
In the case of `O=C(CCP(=O)(O)O)N1C[C@@H](n2cnc3c(O)ncnc32)[C@H](OC[C@@H](O)P(=O)(O)O)C1`, the values for the Ki in data set [3] and in data set [4] were 0.006 µM and 2 nM, respectively.
Turning to `Nc1nc2c(nc(Br)n2C[C@@H](CO)OCCP(=O)(O)O)c(=O)[nH]1`, the Ki was over 30000 nM in [13] and 13 µM in [14].
As to `Nc1nc(Cl)nc2c1ncn2[C@@H]1O[C@H](CO)[C@@H](O)[C@H]1O`, the IC37 in data set [5] was found to be 11 µM.
Turning to `Nc1nc(SCc2ccc([N+](=O)[O-])cc2)c2ncn([C@@H]3O[C@H](CO)[C@@H](O)[C@H]3O)c2n1`, the IC50 in [16] turned out to be 4.5 µM.
Consider `Nc1nc2c(ncn2C[C@@H](CO)OCCP(=O)(O)O)c(=O)[nH]1`, for which the Ki was 100 nM in data set [13] and 0.6 µM in [14].
Consider `CC(C)(C)C(=O)OCOP(=O)(COCCn1cnc2c(N)ncnc21)OCOC(=O)C(C)(C)C` [ADEFOVIR DIPIVOXIL], for which the IC50 in [6] is 37.3 µM.
For `O=[N+]([O-])c1ccc(CSc2ncnc3c2ncn3[C@@H]2O[C@H](CO)[C@@H](O)[C@H]2O)cc1` [NITROBENZYLMERCAPTOPURINE RIBONUCLEOSIDE], the IC50 in data set [16] was 4.2 µM.
Turning to `CCOC(=O)[C@H](Cc1ccccc1)NP(=O)(CCO[C@@H](Cn1cnc2c(=O)[nH]cnc21)C(=O)OC)N[C@@H](Cc1ccccc1)C(=O)OCC`, the IC50 in data set [10] and in [11] was 50 µM each time.
For `Nc1ncnc2c1ncn2C[C@@H](CO)OCP(=O)(O)O`, the IC50 in data set [6] was 0.18 µM.
As to `CCOC(=O)[C@H](Cc1ccccc1)NP(=O)(CCO[C@@H](Cn1cnc2c(=O)[nH]c(N)nc21)C(=O)OC)N[C@@H](Cc1ccccc1)C(=O)OCC`, the IC50 in [10] and in [11] was 50 µM throughout.
`OC[C@H]1O[C@@H](n2cnc3c2N=CNC[C@H]3O)[C@H](O)[C@@H]1O` [COFORMYCIN]: the Ki in data set [17] turned out to be 0.68 nM; in data set [18] it was 0.08 nM; in data set [15], 0.25 nM.
As to `O=c1[nH]c(=O)c2ncn(C[C@H](CO)n3cc(P(=O)(O)O)nn3)c2[nH]1`, the Ki in data set [2] was over 500 µM; in [4], 2000 nM.
As to `Nc1nc(N)c2ncn(C[C@H](CO)OCP(=O)(O)O)c2n1`, the IC50 in [6] was determined as 15 µM.
With `Nc1ncnc2c1ncn2CCOCP(=O)(O)O` [ADEFOVIR], in [6], the IC50 was over 250 µM.

B1: Purine nucleoside phosphorylase (Homo sapiens), P00491 (protein)
chain: T3 sequence (P00491 whole entry)
On to B1, for which the kcat in data set [19] stood at 56 s⁻¹.

B2: Purine nucleoside phosphorylase (Plasmodium falciparum), Q8T9Z7 (protein)
chain: T2 sequence (Q8T9Z7 whole entry)
Take B2: the kcat in data set [20] came to 0.34 s⁻¹.

These data come from ChEMBL document CHEMBL4376805, “Plasmodium Purine Metabolism and Its Inhibition by Nucleoside and Nucleotide Analogues” (J Med Chem, 2019).
